{
  "source": "patent US20250161446A1",
  "about": "“MODIFIED IMMUNE CELLS FOR TREATING AND/OR PREVENTING METASTASIS” (TECHNISCHE UNIVERSITÄT MÜNCHEN, priority 2022, published 2025)",
  "key": {"human CD8^+ T cells": {"system": "human CD8^+ T cells", "test": "Human CD8^+ T cell expansion after anti-CD3/CD28+IL-12 stimulation", "assay_type": "cell-based", "details": "PGE2 16 h, expansion 72 h later", "excerpt": "(§1) Human NK cells and CD8+ T cells were isolated from blood of healthy, voluntary donors after they gave written and informed consent. Blood was mixed with PBS and loaded on Pancoll to isolate peripheral blood mononuclear cells (PBMCs) through centrifugation. NK cells were then isolated by negative selection using the Untouched Human NK Cell Isolation Kit (ThermoFisher). CD8+ T cells were then isolated by negative selection using the Untouched Human CD8+ T Cell Isolation Kit (Miltenyi).\n(§2) Murine or human NK cells or CD8^+ T cells were treated with 1-100 ng/ml synthetic PGE2 or medium as control for 16 h at 37° C. For experiments with tumor factors (TF), cells were incubated in a 1:1 mixture of complete RPMI medium with TF-containing conditioned medium from cancer cells. For the inhibitor studies, cells were first incubated with single EP receptor inhibitors (EP1-EP4) or inhibitor combinations at a concentration of 5 μM for 30 min, before adding 100 ng/ml PGE2 for 16 h at 37° C. For the RNA and ATAC sequencing approach, NK cells were only pre-treated for 1 h with PGE2 and then stimulated (as described below) for further 4 h.\n(§3) To assess T cell differentiation and expansion, CD8^+ T cells were stimulated with anti-CD3/CD28 microbeads plus Interleukin-12 (10 ng/ml), mimicking their activation in metastasis or tumor tissue, and cell numbers were quantified 72 h later by flow cytometry."}, "NK cells [1]": {"system": "NK cells", "test": "Granzyme B expression in NK cells by flow cytometry", "assay_type": "cell-based, mouse", "details": "untreated vs PGE2-treated NK cells", "procedure": "(§4) For the isolation of mouse NK cells, the spleen was excised from mice and passed through a steel sieve. Red blood cells were lysed by incubating the cells with ammonium chloride potassium buffer for 2 min. Following filtration through a 70 μm cell strainer, CD49b^+ leukocytes were purified by immunomagnetic separation to enrich for CD49b^+ NK cells. Th cells were stained with anti-CD49b FITC, anti-CD3ε PerCP/Cy5.5, anti-CD19 PE/eF610 and CD64 PE/Cy7 for 15 min at 4° C. and NK cells, phenotypically identified as CD49b^+CD3ε^−CD19^−CD64^− cells, were FACS-sorted using a SH800 Cell Sorter. After isolation, NK cells were cultured in low doses of IL2 and IL15/IL15Ra for five days to rest the cells and generate functional NK cells.\nMurine or human NK cells or CD8^+ T cells were treated with 1-100 ng/ml synthetic PGE2 or medium as control for 16 h at 37° C. For experiments with tumor factors (TF), cells were incubated in a 1:1 mixture of complete RPMI medium with TF-containing conditioned medium from cancer cells. […]\n(§5) For flow cytometric analysis, cells were resuspended in staining buffer containing antibodies for surface molecules and incubated for 15 min. […] Intracellular staining of cytokines (including IFNγ and TNF) was performed in permeabilization buffer and cells were subsequently analyzed by flow cytometry. […]"}, "NK cells [2]": {"system": "NK cells", "test": "NK cell degranulation (LAMP-1 staining) upon anti-NK1.1 stimulation", "assay_type": "cell-based, mouse", "details": "PGE2 pre-treatment 16 h", "procedure": "as §4\nas §2, with “h. […]” for “h.”"}, "NK cells [3]": {"system": "NK cells", "test": "Cytokine release assay of mouse NK cells upon anti-NK1.1 stimulation (ELISA, multiplex)", "assay_type": "cell-based", "procedure": "as §4\nas §2, with “For” for “Murine or human NK cells or CD8^+ T cells were treated with 1-100 ng/ml synthetic PGE2 or medium as control for 16 h at 37° C. For”\nTo assess cytokine and chemokine production and degranulation, NK cells were stimulated with plate-bound anti-NK1.1 (PK136), mimicking their activation in metastasis. Human NK cells were activated by incubation with the human […] cell line K562. For analysis of cytokine and chemokine production, Brefeldin A was added 1 h after stimulation to block intracellular protein transport processes. 3 h later, cells were stained for flow cytometric analysis. For analysis of degranulation, stimulation was done in presence of anti-LAMP-1 antibody, and Monensin was added 1 h later to prevent acidification of endolytic vesicles.\nTo assess the production of cytokines in cell culture supernatants, NK cells were stimulated for 16 h and cell-free supernatants were harvested and stored at −20° C. until further use. Cytokine concentrations in the culture supernatants were measured by enzyme-linked immunosorbent assays (ELISA) or a multiplex cytokine assay (Bio-Plex Pro Mouse Cytokine 23-plex)."}, "BRAF^V600E tumor cells": {"system": "BRAF^V600E tumor cells", "test": "NK cell cytotoxicity assay (xCelligence impedance)", "assay_type": "cell-based, mouse", "details": "PGE2-treated NK cells co-cultured with tumor cells", "procedure": "Measurement of the dynamics of NK cell cytotoxicity against BRAF^V600E tumor cells over time was performed with the impedance-based technology using an xCelligence RTCA MP device (ACEA Biosciences). The xCELLigence RTCA system measures changes in impedance generated by adherence of cells to electrodes on the bottom of the wells of E-Plates and calculates a parameter called Cell Index. For the assays, tumor cells were seeded in 96-well E-plates. After tumor cells reached confluency and a maximum cell index, in vitro cultured NK cells were added in different effector-to-target ratios. Killing was measured by declining cell index values. Percentage of specific cytotoxicity was finally calculated to the index values from tumor cells alone."}, "mouse CD8^+ T cells": {"system": "mouse CD8^+ T cells", "test": "Mouse CD8^+ T cell expansion after anti-CD3/CD28+IL-12 stimulation", "assay_type": "cell-based", "details": "PGE2 16 h, expansion 72 h later", "procedure": "For the isolation of mouse CD8^+ T cells, the spleen was excised from mice and passed through a steel sieve. Red blood cells were lysed by incubating the cells with ammonium chloride potassium buffer for 2 min. Following filtration through a 70 μm cell strainer, CD8^+ T cells were purified by immunomagnetic separation using anti-CD8 microbeads. After isolation, CD8^+ T cells were cultured with low dose IL2 and CD3/CD28 stimulatory beads to generate effector-like CD8+ T cells for in vitro assays.\nas §2, with “For the RNA and ATAC sequencing approach, NK cells were only pre-treated for 1 h with PGE2 and then stimulated (as described below) for further 4 h.” left out\nas §3"}, "human NK cells": {"system": "human NK cells", "test": "Human NK cell cytokine production upon stimulation with K562 (flow cytometry)", "assay_type": "cell-based", "details": "PGE2 16 h", "excerpt": "as §1\nas §2, with “For the RNA and ATAC sequencing approach, NK cells were only pre-treated for 1 h with PGE2 and then stimulated (as described below) for further 4 h.” left out\nas §5"}, "[4]": {"details": "anti-NK1.1 stimulation in presence of PGE2"}},
  "data": [
    {"smiles": "CCCCC[C@H](O)/C=C/[C@H]1[C@H](O)CC(=O)[C@@H]1C/C=C\\CCCC(=O)O", "note": "[PGE2, prostaglandin E2]", "values": [
      {"measurement": "expansion of human CD8^+ T cells upon stimulation", "setting": "human CD8^+ T cells", "value": "Identical findings"},
      {"measurement": "granzyme B levels in NK cells", "setting": "NK cells [1]", "value": "unaffected"},
      {"measurement": "degranulation (LAMP-1 staining) of NK cells", "setting": "NK cells [2]", "value": "only slightly reduced"},
      {"measurement": "XCL1 secretion after transient PGE2 treatment", "setting": "NK cells [3]; PGE2 24 h, then removed for 24 h before anti-NK1.1 stimulation", "value": "strong inhibitory effects"},
      {"measurement": "IFNγ release by NK cells", "setting": "NK cells [3]; [4]", "value": "markedly reduced in a dose-dependent manner"},
      {"measurement": "XCL1 release by NK cells", "setting": "NK cells [3]; [4]", "value": "markedly reduced in a dose-dependent manner"},
      {"measurement": "secretion of other effector cytokines, chemokines and growth factors by NK cells", "setting": "NK cells [3]; upon stimulation, multiplex assay", "value": "diminished the secretion"},
      {"measurement": "NK cell mediated killing of tumor cells", "setting": "BRAF^V600E tumor cells", "value": "effectively eliminate the tumor cells"},
      {"measurement": "expansion of mouse CD8^+ T cells upon stimulation", "setting": "mouse CD8^+ T cells", "value": "strongly impaired"},
      {"measurement": "cytokine and chemokine production (IFNγ, TNF, XCL1) by human NK cells", "setting": "human NK cells", "value": "impaired the cytokine and chemokine production"}
    ]}
  ]
}
